Assay in all cases: NCI anticancer screen, dose series, 48 h
The test system of experiment [1] is EKVX NSCLC.
Experiment [2] has as its system M14 melanoma.
Experiment [3] concerns M19-MEL melanoma.
Experiment [4] deals with MOLT-4 leukemia.
Experiment [5] has as its system OVCAR-8 ovarian.
For experiment [6], the system named is RXF 393 renal.
In experiment [7] the test system is SK-MEL-5 melanoma.
Experiment [8] concerns HOP-62 NSCLC.
The subject of experiment [9] is NCI/ADR-RES ovarian.

Data on 30 compounds can be found in PubChem BioAssay (NCI).

Each structure is given as a SMILES string.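 Compound exposure: 48 hours, 5 concentrations, 96-well plates. GI50 is the concentration that inhibits growth by half. TGI: total growth inhibition.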 A value given as a limit tells only on which side of the number the result lay.

For `CCN1CCC(O)(c2ccc(Cl)cc2)C(C(=O)c2ccc(Cl)cc2)C1` (configuration not stated), the TGI in experiment [1], in experiment [2], in [3], in [4], in experiment [5] and in experiment [6] was more than 100 µM each time. In [7], this compound returned a TGI of more than 100 µM.
As for `CCOC(=O)c1[nH]c(COC(C)=O)c2c1CCCCCCCCCC2`, the TGI in experiment [1], in experiment [8], in [2], in [3], in experiment [4] and in experiment [5] was more than 100 µM throughout. Moreover, the TGI in experiment [6] and in experiment [7] was more than 100 µM each time.
As to `CCN(CC)c1ccc(N=Nc2ccc(-c3nc4ccc[n+](C)c4o3)cc2)cc1`, the TGI amounted to 26.7 µM in experiment [1]; 29.9 µM in [8]; 24.8 µM in experiment [2]; 16.3 µM in experiment [3]; 16.2 µM in experiment [4]; 18.8 µM in experiment [5]. Further, the TGI was determined as 22.6 µM in experiment [6] and 11 µM in experiment [7].
`Cn1cc2ccccc2c1-c1nc(F)nc(OCC(=O)[C@H]2CCC3[C@@H]4CCC5=CC(=O)CC[C@]5(C)C4[C@@H](O)C[C@@]32C)n1` (some centres not stated): the TGI in experiment [1] turned out to be 58.8 µM; in experiment [8], 42.7 µM; in experiment [2] it was 44.7 µM; in experiment [3], 14.9 µM; in [4] it was 54.3 µM; in experiment [5] it was 18.5 µM. Also, the TGI in experiment [6] was determined as 14.5 µM; in experiment [7] it was 44.9 µM.
For `Cc1cc2c([nH]c3ccccc32)c2c1OC(C)(C)C1C3CC(C)(C)Oc4c(C)cc5c6ccccc6n(c5c43)C21` (configuration not stated), the TGI in [1], in experiment [8], in experiment [2], in experiment [3], in experiment [4] and in experiment [5] was more than 100 µM throughout. Moreover, the TGI in experiment [6] and in experiment [7] was more than 100 µM throughout.
Take `N#CC1CCCCCCCCCCC(=O)N(CCCl)C1=O` (configuration not stated): the TGI in experiment [1], in experiment [8], in experiment [2], in experiment [3], in experiment [4] and in experiment [5] was more than 100 µM each time. Besides, the TGI in experiment [6] and in experiment [7] was more than 100 µM in each case.
On to `CN(C)CC/[N+]([O-])=C(/c1ccccc1)C12CC3CC(CC(C3)C1)C2`, for which the TGI amounted to 38.1 µM in [1]; 28.9 µM in [8]; 26.8 µM in experiment [2]; 27.2 µM in experiment [3]; 34.1 µM in experiment [4]; 31.7 µM in experiment [5]. Besides, the TGI in experiment [6] stood at 32.9 µM; in [7], 32 µM.
With `Cn1cc(C(=O)C[n+]2ccccc2)c2ccccc21`, the TGI is 88.3 µM in experiment [1]; more than 100 µM in experiment [8]; more than 100 µM in experiment [2]; more than 100 µM in experiment [3]; more than 100 µM in experiment [4]; more than 100 µM in experiment [5]. Further, the TGI in experiment [7] is more than 100 µM.
With `COc1ccc(OCC(=O)O)c(C(=O)CCC(=O)O)c1`, the TGI in experiment [1] was more than 100 µM; in experiment [8], more than 10 µM; in experiment [2], more than 10 µM; in [3] it was more than 100 µM; in [4] it was more than 100 µM; in [5], more than 100 µM. For the same compound, the TGI in experiment [6] and in experiment [7] was more than 100 µM in each case.
`CC(C)OP(=O)(NC(=S)c1ccccc1)OC(C)C`: the TGI in experiment [1], in experiment [2], in experiment [3], in experiment [4], in experiment [5] and in [7] was more than 100 µM each time.
`CC(=O)OCC1OC(n2c(-c3ccc(C)cc3)cc(-c3ccccc3)c(C#N)c2=O)C(OC(C)=O)C(OC(C)=O)C1OC(C)=O` (configuration not stated): the TGI in [1], in [8], in experiment [2], in [3], in [4] and in experiment [5] was more than 100 µM throughout. Also, the TGI in experiment [7] was more than 100 µM.
As for `Cc1cc2c(C)nn(Cc3ccc(Cl)cc3)c2c(C#N)c1C`, the TGI in experiment [1], in experiment [8], in experiment [3], in [5] and in experiment [6] was more than 100 µM in each case.
With `COC(=O)Nc1nc2ccc(Br)cc2[nH]1`, the TGI in experiment [1], in experiment [8], in [2], in experiment [3], in experiment [4] and in [5] was more than 100 µM throughout. Moreover, the values for the TGI in experiment [6] and in experiment [7] were 67.2 µM and more than 100 µM, respectively.
As to `COc1ccccc1NC(=O)CC(=O)N/N=C/c1ccc(N(CCC#N)S(=O)(=O)c2ccccc2)cc1`, the TGI in [1], in experiment [8], in experiment [2], in experiment [3], in [4] and in [5] was more than 100 µM in each case. The TGI in experiment [7] was more than 100 µM.
`CCCSS[C@H]1NC(=O)[C@H]1NC(=O)COc1ccccc1`: the TGI is 41.4 µM in experiment [1]; more than 100 µM in experiment [8]; 24.4 µM in experiment [2]; 33 µM in experiment [3]; 13.2 µM in experiment [4]; 27.6 µM in experiment [5]. Further, the TGI in [6] is 29.7 µM; in experiment [7] it was 54.9 µM.
Consider `COc1cccc(NC(=O)/C(Cc2nc3ccccc3nc2C)=N/NC(=O)C[n+]2ccccc2)c1`, for which the TGI in experiment [1], in experiment [8], in experiment [2], in experiment [3], in experiment [4] and in experiment [5] was more than 100 µM throughout. The compound also returned a TGI in experiment [7] of more than 100 µM.
As to `Cc1cc(C)cc(NC(N)=S)c1`, the TGI in experiment [1], in experiment [8], in [2], in experiment [3], in [4] and in experiment [5] was more than 100 µM in each case. In addition, the TGI in experiment [6] was 98.1 µM; in experiment [7], more than 100 µM.
Consider `CCN(CC)C(=O)C(C)n1cc(C)c(=O)[nH]c1=O` (configuration not stated), for which the TGI in [1], in experiment [8], in experiment [2], in experiment [3], in experiment [4] and in experiment [5] was more than 100 µM each time. Moreover, the TGI in [6] and in experiment [7] was more than 100 µM throughout.
Turning to `COc1ccc(C2ON(c3cccc(C)n3)CC=C2C)cc1` (configuration not stated), the TGI in [1], in [8], in [2], in experiment [3], in experiment [4] and in experiment [5] was more than 100 µM in each case. Also, the TGI amounted to 96.5 µM in experiment [6] and 33.3 µM in experiment [7].
Take `COC(C)(C)C/C=C/C(C)=C/C=C/C(C)=C\C=C\C(C)=C\C=C\C=C(C)\C=C\C=C(C)\C=C\C=C(C)\C=C\CC(C)(C)OC`: the GI50 in experiment [1], in experiment [8], in [2], in experiment [3], in experiment [4] and in experiment [5] was more than 150 µg/mL throughout. Moreover, the GI50 in experiment [6] and in experiment [7] was more than 150 µg/mL throughout. Further, the TGI in [1], in experiment [8], in [2], in [3], in experiment [4] and in experiment [5] was more than 150 µg/mL each time. For the same compound, the TGI in experiment [6] and in experiment [7] was more than 150 µg/mL each time.
Take `N#CC1CC2(CCN1C(=O)c1ccccc1)OCCO2` (configuration not stated): the TGI in experiment [1], in experiment [8], in experiment [2], in experiment [3], in [4] and in [5] was more than 100 µM in each case. In addition, the TGI in experiment [6] and in experiment [7] was more than 100 µM in each case.
Take `O=C(NC12CC3CC(CC(C3)C1)C2)C(=O)c1c[nH]c2ccccc12`: the TGI in experiment [1] worked out at 32.2 µM; in experiment [8], 36.7 µM; in [2] it was 29.3 µM; in [3], 36.2 µM; in experiment [4], 43.2 µM; in [7] it was 30.4 µM.
Consider `CN(Cc1cc(C(C)(C)C)cc(Br)c1O)Cc1cc(C(C)(C)C)cc(Br)c1O`, for which the TGI in experiment [1] amounted to 12.7 µM; in experiment [8], 15.5 µM; in experiment [2], 14.9 µM; in [4], 19.9 µM; in experiment [9], 11.1 µM; in experiment [5], 15.3 µM. Moreover, the TGI worked out at 7.98 µM in experiment [6] and 7.76 µM in [7].
For `O=C(OC[C@H]1O[C@H](OC(=O)c2cc(O)c(O)c(OC(=O)c3cc(O)c(O)c(O)c3)c2)[C@H](OC(=O)c2cc(O)c(O)c(OC(=O)c3cc(O)c(O)c(O)c3)c2)[C@@H](OC(=O)c2cc(O)c(O)c(OC(=O)c3cc(O)c(O)c(O)c3)c2)[C@@H]1OC(=O)c1cc(O)c(O)c(OC(=O)c2cc(O)c(O)c(O)c2)c1)c1cc(O)c(O)c(OC(=O)c2cc(O)c(O)c(O)c2)c1`, the GI50 was 5.2 µM in [1]; 1.78 µM in experiment [8]; 5.01 µM in [2]; 4.32 µM in experiment [4]; 1.3 µM in experiment [9]; 1.91 µM in experiment [5]. For the same compound, the GI50 was 1.2 µM in experiment [6] and 2.98 µM in experiment [7]. Moreover, the TGI in experiment [1] was more than 25 µM; in experiment [8], more than 25 µM; in [2] it was more than 25 µM; in experiment [4] it was more than 25 µM; in experiment [9] it was 18.9 µM; in experiment [5] it was more than 25 µM. The TGI in experiment [6] is 7.48 µM; in [7], 13.1 µM.
For `N#CC1(C#N)C(C#N)(C#N)C12CCCCCC2`, the TGI in experiment [1] is 31.9 µM; in experiment [8], more than 89.4 µM; in experiment [2], 8.67 µM; in [3] it was 47.9 µM; in [4], 19.5 µM; in experiment [5], 26.7 µM. Moreover, the TGI in [6] was found to be 22.9 µM; in [7], 36.7 µM.
Regarding `O=C(c1ccccc1)c1cn(/N=C\c2ccccc2)c(=O)nc1-c1ccccc1`, the TGI in experiment [1], in experiment [8], in experiment [2], in experiment [3], in [4] and in [5] was more than 100 µM throughout. Also, the TGI in experiment [6] and in experiment [7] was more than 100 µM throughout.
Turning to `O=C1CCc2c(sc3[nH]c(=S)n(Cc4ccc(Cl)cc4)c(=O)c23)C1`, the GI50 in experiment [1] was 0.544 µM; in experiment [8], 1.47 µM; in [2] it was 0.477 µM; in [4], 1.21 µM; in [9], 0.408 µM; in [5], 0.468 µM. For the same compound, the GI50 in experiment [6] was 0.401 µM; in experiment [7], 0.362 µM. In addition, the TGI in experiment [1] is more than 100 µM; in experiment [8] it was more than 100 µM; in [2], more than 56.3 µM; in [4], 17.1 µM; in experiment [9], more than 41.8 µM; in experiment [5] it was more than 100 µM. The TGI in experiment [6] is 5.05 µM; in [7], 1.13 µM.
As to `Clc1ccc(C(n2cc(Br)cn2)n2cc(Br)cn2)cc1`, the TGI in experiment [1] was 38.9 µM; in experiment [8], 34.3 µM; in [2] it was 35.2 µM; in experiment [3] it was 32.6 µM; in experiment [4] it was 47.9 µM; in experiment [5] it was 36.5 µM. For the same compound, the figures for the TGI in experiment [6] and in experiment [7] were 32.5 µM and 27.2 µM, respectively.
As to `CCOc1ccc2nc(NC(=O)C(=O)C(c3cnc4ccccc4n3)[N+](=O)[O-])sc2c1` (configuration not stated), the TGI in experiment [1], in experiment [8], in experiment [2], in [4], in experiment [9] and in [5] was more than 100 µM each time. For the same compound, the TGI in [6] and in [7] was more than 100 µM each time.
Regarding `CC(C)(c1ccccc1)c1ccc(OC#N)cc1`, the TGI in experiment [1], in experiment [8], in [2], in [3], in experiment [4] and in [5] was more than 100 µM each time. Further, the TGI in experiment [6] and in experiment [7] was more than 100 µM in each case.
